Reference: patent publication US20090233966A1, “Analogues of the Azinomycins as Anti-Tumour Agents and as Prodrugs” (School of Pharmacy, University of London, priority 2005, published 2009)

Tests used:
Format in all cases: cell-based, human
[1] = system: RPMI-8226; assay: NCI 60 cell panel growth inhibition; details: Homo sapiens, Leukemia, read-out: anti-tumour activity GI50
Excerpt: (§1) Examples 6 and 7 make use of the NCl 60 cell panel. This is an in vitro cell line screening project providing direct support to the National Cancer Institute's USA Developmental Therapeutic Programme for anti cancer discovery. The methodolgy for the cell line's operation is described by Boyd et al in Drug Development Research 1995, 34, 91-109.

[2] = system: SK-MEL-28; assay: NCI 60 cell panel growth inhibition; details: Homo sapiens, MELAN, read-out: anti-tumour activity GI50
Excerpt: as §1

[3] = system: K562; assay: NCI 60 cell panel growth inhibition; details: Homo sapiens, Leukemia, read-out: anti-tumour activity GI50
Excerpt: as §1

[4] = system: UCC-62; assay: NCI 60 cell panel growth inhibition; details: Homo sapiens, 60 cell, MELAN, read-out: anti-tumour activity GI50
Excerpt: as §1

[5] = system: SKOV-3; assay: NCI 60 cell panel growth inhibition; details: Homo sapiens, SK-OV-3, OVAR, read-out: anti-tumour activity GI50
Excerpt: as §1

[6] = system: ACHN; assay: NCI 60 cell panel growth inhibition; details: Homo sapiens, RENAL, read-out: anti-tumour activity GI50
Excerpt: as §1

[7] = system: MCF7; assay: NCI 60 cell panel growth inhibition; details: Homo sapiens, BREAST, read-out: anti-tumour activity GI50
Excerpt: as §1

[8] = system: SK-MEL-5; assay: NCI 60 cell panel growth inhibition; details: Homo sapiens, MELAN, read-out: anti-tumour activity GI50
Excerpt: as §1

[9] = system: SF-539; assay: NCI 60 cell panel growth inhibition; details: Homo sapiens, CNS, read-out: anti-tumour activity GI50
Excerpt: as §1

[10] = system: NCI-H460; assay: NCI 60 cell panel growth inhibition; details: Homo sapiens, NSCLC, read-out: anti-tumour activity GI50
Excerpt: as §1

[11] = system: DU-145; assay: NCI 60 cell panel growth inhibition; details: Homo sapiens, PROST, read-out: anti-tumour activity GI50
Excerpt: as §1

[12] = system: OVCAR-4; assay: NCI 60 cell panel growth inhibition; details: Homo sapiens, OVAR, read-out: anti-tumour activity GI50
Excerpt: as §1

[13] = system: 786-0; assay: NCI 60 cell panel growth inhibition; details: Homo sapiens, RENAL, read-out: anti-tumour activity GI50
Excerpt: as §1

[14] = system: SN12C; assay: NCI 60 cell panel growth inhibition; details: Homo sapiens, RENAL, read-out: anti-tumour activity GI50
Excerpt: as §1

[15] = system: OVCAR-3; assay: NCI 60 cell panel growth inhibition; details: Homo sapiens, OVAR, read-out: anti-tumour activity GI50
Excerpt: as §1

[16] = system: SK-MEL-2; assay: NCI 60 cell panel growth inhibition; details: Homo sapiens, MELAN, read-out: anti-tumour activity GI50
Excerpt: as §1

[17] = system: T-47D; assay: NCI 60 cell panel growth inhibition; details: Homo sapiens, T47D, BREAST, read-out: anti-tumour activity GI50
Excerpt: as §1

[18] = system: OVCAR-8; assay: NCI 60 cell panel growth inhibition; details: Homo sapiens, OVAR, read-out: anti-tumour activity GI50
Excerpt: as §1

[19] = system: SR; assay: NCI 60 cell panel growth inhibition; details: Homo sapiens, Leukemia, read-out: anti-tumour activity GI50
Excerpt: as §1

[20] = system: TK10; assay: NCI 60 cell panel growth inhibition; details: Homo sapiens, TK-10, RENAL, read-out: anti-tumour activity GI50
Excerpt: as §1

[21] = system: HL-60(TB); assay: NCI 60 cell panel growth inhibition; details: Homo sapiens, Leukemia, read-out: anti-tumour activity GI50
Excerpt: as §1

[22] = system: HOP-92; assay: NCI 60 cell panel growth inhibition; details: Homo sapiens, NSCLC, read-out: anti-tumour activity GI50
Excerpt: as §1

[23] = system: SF-268; assay: NCI 60 cell panel growth inhibition; details: Homo sapiens, CNS, read-out: anti-tumour activity GI50
Excerpt: as §1

[24] = system: HS 578T; assay: NCI 60 cell panel growth inhibition; details: Homo sapiens, BREAST, read-out: anti-tumour activity GI50
Excerpt: as §1

[25] = system: NCI-H322M; assay: NCI 60 cell panel growth inhibition; details: Homo sapiens, NSCLC, read-out: anti-tumour activity GI50
Excerpt: as §1

[26] = system: CAKI-1; assay: NCI 60 cell panel growth inhibition; details: Homo sapiens, RENAL, read-out: anti-tumour activity GI50
Excerpt: as §1

[27] = system: CCRF-CEM; assay: NCI 60 cell panel growth inhibition; details: Homo sapiens, Leukemia, read-out: anti-tumour activity GI50
Excerpt: as §1

[28] = system: NCI-H522; assay: NCI 60 cell panel growth inhibition; details: Homo sapiens, NSCLC, read-out: anti-tumour activity GI50
Excerpt: as §1

[29] = system: MDA-MB-231/ATCC; assay: NCI 60 cell panel growth inhibition; details: Homo sapiens, BREAST, read-out: anti-tumour activity GI50
Excerpt: as §1

[30] = system: U251; assay: NCI 60 cell panel growth inhibition; details: Homo sapiens, U-251, CNS, read-out: anti-tumour activity GI50
Excerpt: as §1

[31] = system: 435; assay: NCI 60 cell panel growth inhibition; details: Homo sapiens, 60 cell, BREAST, read-out: anti-tumour activity GI50
Excerpt: as §1

[32] = system: M14; assay: NCI 60 cell panel growth inhibition; details: Homo sapiens, MELAN, read-out: anti-tumour activity GI50
Excerpt: as §1

[33] = system: RXF 393; assay: NCI 60 cell panel growth inhibition; details: Homo sapiens, RENAL, read-out: anti-tumour activity GI50
Excerpt: as §1

[34] = system: A498; assay: NCI 60 cell panel growth inhibition; details: Homo sapiens, RENAL, read-out: anti-tumour activity GI50
Excerpt: as §1

[35] = system: MOLT-4; assay: NCI 60 cell panel growth inhibition; details: Homo sapiens, Leukemia, read-out: anti-tumour activity GI50
Excerpt: as §1

[36] = system: BT-549; assay: NCI 60 cell panel growth inhibition; details: Homo sapiens, BREAST, read-out: anti-tumour activity GI50
Excerpt: as §1

[37] = system: HCC2998; assay: NCI 60 cell panel growth inhibition; details: Homo sapiens, HCC 2998, COLON, read-out: anti-tumour activity GI50
Excerpt: as §1

[38] = system: EKVX; assay: NCI 60 cell panel growth inhibition; details: Homo sapiens, NSCLC, read-out: anti-tumour activity GI50
Excerpt: as §1

[39] = system: HCT-116; assay: NCI 60 cell panel growth inhibition; details: Homo sapiens, COLON, read-out: anti-tumour activity GI50
Excerpt: as §1

[40] = system: SNB-19; assay: NCI 60 cell panel growth inhibition; details: Homo sapiens, CNS, read-out: anti-tumour activity GI50
Excerpt: as §1

[41] = system: NCI/ADRRES; assay: NCI 60 cell panel growth inhibition; details: Homo sapiens, NCI/ADR-RES, BREAST, read-out: anti-tumour activity GI50
Excerpt: as §1

[42] = system: OVCAR-5; assay: NCI 60 cell panel growth inhibition; details: Homo sapiens, OVAR, read-out: anti-tumour activity GI50
Excerpt: as §1

[43] = system: HOP-62; assay: NCI 60 cell panel growth inhibition; details: Homo sapiens, NSCLC, read-out: anti-tumour activity GI50
Excerpt: as §1

[44] = system: PC-3; assay: NCI 60 cell panel growth inhibition; details: Homo sapiens, PROST, read-out: anti-tumour activity GI50
Excerpt: as §1

[45] = system: IGROV1; assay: NCI 60 cell panel growth inhibition; details: Homo sapiens, IGROV-1, OVAR, read-out: anti-tumour activity GI50
Excerpt: as §1

[46] = system: NCl 60 cell panel; assay: NCI 60 cell line panel antitumour activity (whole panel)
Excerpt: as §1

Which GI50 [1] does the source give for `C=C(C)[C@H](OC(=O)c1cc(OC)cc2c(C)cccc12)C(=O)NCCN1CCCC(Cl)C1` (some centres unmarked) [Compound 21] here?
Its GI50 is 3.43 µM.

What about the GI50 [2] of the same compound?
The GI50 was 8.48 µM.

What about the GI50 [3] of the same compound?
The GI50 was 5.16 µM.

And the GI50 [4]?
Its GI50 is 4.41 µM.

And the GI50 [5]?
The GI50 was 17.2 µM.

What about the GI50 [6] of the same compound?
The GI50 was 1.78 µM.

What about the GI50 [7] of the same compound?
The GI50 was 4.62 µM.

What about the GI50 [8] of the same compound?
The GI50 was 1.99 µM.

What about the GI50 [9] of the same compound?
The GI50 was 0.45 µM.

And the GI50 [10]?
The GI50 was 6.26 µM.

And the GI50 [11]?
The GI50 was 5.15 µM.

What about the GI50 [12] of the same compound?
The GI50 was 20.9 µM.

What about the GI50 [13] of the same compound?
The GI50 was 4.48 µM.

What about the GI50 [14] of the same compound?
The GI50 was 3.76 µM.

And the GI50 [15]?
The GI50 was 10.2 µM.

What about the GI50 [16] of the same compound?
Its GI50 is 7.81 µM.

And the GI50 [17]?
Its GI50 is 10.8 µM.

And the GI50 [18]?
The GI50 was 32.9 µM.

And the GI50 [19]?
The GI50 was 2.34 µM.

And the GI50 [20]?
Its GI50 is 12.1 µM.

What about the GI50 [21] of the same compound?
The GI50 was 12.1 µM.

What about the GI50 [22] of the same compound?
The GI50 was 4.12 µM.

And the GI50 [23]?
Its GI50 is 11.9 µM.

And the GI50 [24]?
The GI50 was 3.69 µM.

What about the GI50 [25] of the same compound?
Its GI50 is 8.07 µM.

And the GI50 [26]?
The GI50 was 5.66 µM.

And the GI50 [27]?
The GI50 was 3.24 µM.

And the GI50 [28]?
Its GI50 is 5.1 µM.

And the GI50 [29]?
Its GI50 is 11 µM.

And the GI50 [30]?
Its GI50 is 2.63 µM.

And the GI50 [31]?
Its GI50 is 7.62 µM.

What about the GI50 [32] of the same compound?
The GI50 was 1.75 µM.

And the GI50 [33]?
Its GI50 is 19.1 µM.

And the GI50 [34]?
Its GI50 is 0.19 µM.

What about the GI50 [35] of the same compound?
The GI50 was 3.3 µM.

What about the GI50 [36] of the same compound?
Its GI50 is 4.55 µM.

And the GI50 [37]?
Its GI50 is 4.27 µM.

What about the GI50 [38] of the same compound?
Its GI50 is 11.4 µM.

What about the GI50 [39] of the same compound?
The GI50 was 12.8 µM.

And the GI50 [40]?
The GI50 was 5.63 µM.

What about the GI50 [41] of the same compound?
Its GI50 is 12.8 µM.

And the GI50 [42]?
Its GI50 is 11.1 µM.

What about the GI50 [43] of the same compound?
Its GI50 is 3.45 µM.

And the GI50 [44]?
The GI50 was 7.96 µM.

What about the GI50 [45] of the same compound?
The GI50 was 4.21 µM.

And the GI50 ([46]; Homo sapiens, 60 cell, MGMID line of the panel, read-out: anti-tumour activity GI50, MGMID)?
The GI50 was 5.12 µM.

What about the “antitumour activity in the NCl 60 cell line panel (in words)” value ([46]; wide range of human tumour cell lines) of the same compound?
The value was “significant cytotoxicity in the low micromolar range”.
